System: neuronal protein extravasation
Experiment: Neuronal protein extravasation in dura after electrical stimulation of the trigeminal ganglion (Evans Blue)
Format: in vivo, Harlan Sprague-Dawley rats or guinea pigs
Experimental: Harlan Sprague-Dawley rats (225-325 g) or guinea pigs from Charles River Laboratories (225-325 g) were anesthetized with sodium pentobarbital intraperitoneally (65 mg/kg or 45 mg/kg respectively) and placed in a stereotaxic frame (David Kopf Instruments) with the incisor bar set at - 3.5 mm for rats or -4.0 mm for guinea pigs. Following a midline sagital scalp incision, two pairs of bilateral holes were drilled through the skull (6 mm posteriorly, 2.0 and 4.0 mm laterally in rats; 4 mm posteriorly and 3.2 and 5.2 mm laterally in guinea pigs, all coordinates referenced to bregma). Pairs of stainless steel stimulating electrodes (Rhodes Medical Systems, Inc.) were lowered through the holes in both hemispheres to a depth of 9 mm (rats) or 10.5 mm (guinea pigs) from dura.
The femoral vein was exposed and a dose of the test compound was injected intravenously (1 mL/kg). […]
A fluorescence microscope (Zeiss) equipped with a grating monochromator and a spectrophotometer was used to quantify the amount of Evans Blue dye in each sample. An excitation wavelength of approximately 535 nm was utilized and the emission intensity at 600 nm was determined. […] This facilitated the computer-controlled movement of the stage with fluorescence measurements at 25 points (500 µm steps) on each dural sample. The mean and standard deviation of the measurements was determined by the computer. […]

SMILES	Inhibition of Protein Extravasation i.v. ID50 (i.v., 10 minutes before stimulation of the trigeminal ganglion, species (rat or guinea pig) not given, ID50 approximated from dose-response curve) [mmol/kg]	Inhibition of Protein Extravasation i.v. ID50 (mMol/kg) (iv)
O=C(O)C(=O)O.Oc1ccc2[nH]cc(C3CCNCC3)c2c1 [Compound III, 5-hydroxy-3-(4-piperidinyl)-1H-indole oxalate]	8.9e-09	
CCN(CC)C1CCc2cccc(Cl)c2C1.Cl (centres unmarked) [Compound IV, 8-chloro-2-diethylamino-1,2,3,4-tetrahydronaphthalene hydrochloride]		1.2x10-^7 mMol/kg
